Test results published in the supplement of paper PMC4977894.
± gives the standard deviation of the averaged measurements.

What was measured:
[1] = system: Homo sapiens (human subject panel, olfactory perception); assay: perceived odor familiarity rating (rating 0-100); higher = more familiar
Summary of the method: (§1)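 Values for familiarity, intensity and pleasantness are averaged over subjects. The panel of 55 healthy people aged 18–50 excluded the six lowest performers and rated each paraffin-oil dilution of a molecule at high and low concentrations. Ratings were made only for stimuli the subject reported smelling, on a slider converted to a 0–100 scale.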

[2] = system: Homo sapiens (human subject panel, olfactory perception); assay: perceived odor intensity rating (rating 0-100); higher = stronger perceived smell
Summary of the method: as §1

[3] = system: Homo sapiens (human subject panel, olfactory perception); assay: perceived odor pleasantness rating (rating 0-100); higher = more pleasant
Summary of the method: as §1

[4] = odor dilution in paraffin oil: 1/1,000
[5] = odor dilution in paraffin oil: 1/100,000
[6] = odor dilution in paraffin oil: 1/10
[7] = odor dilution in paraffin oil: 1/10,000,000

| Compound | perceived odor familiarity rating [1, 4] | perceived odor familiarity rating [1, 5] | perceived odor intensity rating [2, 4] | perceived odor intensity rating [2, 5] | perceived odor pleasantness rating [3, 4] | perceived odor pleasantness rating [3, 5] | perceived odor familiarity rating [1, 6] | perceived odor intensity rating [2, 6] | perceived odor pleasantness rating [3, 6] | perceived odor familiarity rating [1, 7] | perceived odor intensity rating [2, 7] | perceived odor pleasantness rating [3, 7] |
| --- | --- | --- | --- | --- | --- | --- | --- | --- | --- | --- | --- | --- |
| CCCCCCCC=O [octanal] | 50.5 ± 31 | 62.9 ± 29 | 66.7 ± 26 | 55 ± 28 | 33.1 ± 22 | 65 ± 25 | – | – | – | – | – | – |
| CC(C)CCCC(C)CCO (configuration not stated) [3,7-Dimethyl-1-octanol] | 57.6 ± 30 | 40.5 ± 26 | 74.7 ± 22 | 24.2 ± 26 | 40.2 ± 28 | 43.8 ± 19 | – | – | – | – | – | – |
| CC1CC[C@H](C(C)C)[C@@H](O)C1 (some centres not stated) [( + )-menthol] | 51.8 ± 29 | – | 51 ± 31 | – | 52 ± 24 | – | 73.7 ± 26 | 83.4 ± 14 | 55.3 ± 28 | – | – | – |
| CCCCCCCCCC(=O)OCC [Ethyl decanoate] | 38.9 ± 27 | – | 21.2 ± 24 | – | 49.6 ± 24 | – | 50.9 ± 30 | 59.8 ± 30 | 58.2 ± 26 | – | – | – |
| CCOC(=O)CCCCCCCCC(=O)OCC [Diethyl sebacate] | 31.3 ± 31 | – | 21.4 ± 25 | – | 55.5 ± 26 | – | 64.7 ± 28 | 54.7 ± 27 | 71.3 ± 21 | – | – | – |
| C=CCOC(=O)/C(C)=C/C [Allyl tiglate] | 49.6 ± 31 | 46.1 ± 32 | 71.9 ± 24 | 48 ± 29 | 41.1 ± 28 | 44.3 ± 23 | – | – | – | – | – | – |
| Cc1ccc2oc(=O)ccc2c1 [6-Methylcoumarin] | 55.2 ± 30 | – | 62.9 ± 27 | – | 53.9 ± 28 | – | 48.9 ± 32 | 80.1 ± 19 | 40.8 ± 32 | – | – | – |
| Cc1cc(C(C)(C)C)c(O)c(C(C)(C)C)c1 [Butylated hydroxytoluene] | 27.7 ± 29 | – | 16.9 ± 24 | – | 51.4 ± 22 | – | 43.4 ± 29 | 40.3 ± 31 | 51.9 ± 24 | – | – | – |
| Cc1ccc(C(C)C)cc1 [para-cymene] | 55.8 ± 32 | – | 66.4 ± 28 | – | 47.4 ± 26 | – | 54.7 ± 32 | 83.7 ± 15 | 37 ± 28 | – | – | – |
| Cc1ccnc2ccccc12 [4-Methylquinoline] | – | 33.1 ± 30 | – | 38.7 ± 30 | – | 40.5 ± 21 | – | – | – | 34.8 ± 28 | 20.8 ± 22 | 49.5 ± 24 |
| CCC(=O)CC [3-Pentanone] | 53.3 ± 32 | 39.5 ± 29 | 57.4 ± 35 | 33.3 ± 32 | 41.1 ± 26 | 45.4 ± 24 | – | – | – | – | – | – |
| Cc1ccc(C)[nH]1 [2,5-Dimethylpyrrole] | 62 ± 28 | 48 ± 31 | 71.4 ± 23 | 50.6 ± 30 | 53 ± 27 | 48.2 ± 26 | – | – | – | – | – | – |
| CCCC(=O)CCC [4-Heptanone] | 55.4 ± 27 | 41.1 ± 29 | 69.3 ± 24 | 34.7 ± 31 | 49.3 ± 23 | 51.6 ± 24 | – | – | – | – | – | – |
| CC1=CC(=O)CC(C)(C)C1 [Isophorone] | 50.2 ± 35 | 40.4 ± 28 | 60.1 ± 25 | 21.6 ± 24 | 51.5 ± 25 | 54.3 ± 24 | – | – | – | – | – | – |
| OCc1ccccc1 [benzyl alcohol] | 40.2 ± 25 | – | 45.4 ± 26 | – | 52.4 ± 20 | – | 55 ± 29 | 74.2 ± 18 | 46.7 ± 25 | – | – | – |
| CCCCCCCCCC(OC)OC [Decanal dimethyl acetal] | 41.2 ± 34 | – | 29.7 ± 30 | – | 53.6 ± 22 | – | 47.6 ± 34 | 70.7 ± 25 | 50.2 ± 29 | – | – | – |
| C=C(C)[C@@H]1CC[C@@H](C)C[C@H]1O [(-)-Isopulegol] | 37.8 ± 32 | – | 24.4 ± 27 | – | 45.1 ± 24 | – | 73.2 ± 29 | 81.1 ± 17 | 56.9 ± 27 | – | – | – |
| CCCCC(C)O (configuration not stated) [2-hexanol] | 58.2 ± 28 | 38.1 ± 29 | 71.9 ± 24 | 47.8 ± 32 | 42.3 ± 24 | 42.1 ± 25 | – | – | – | – | – | – |
| CCCCCCCC(=O)OCCCCCC [Hexyl octanoate] | 42.9 ± 32 | 28 ± 23 | 23 ± 19 | 16.5 ± 24 | 52.4 ± 18 | 46.4 ± 22 | – | – | – | – | – | – |
| CCCCO [butanol] | – | 35.8 ± 32 | – | 19.8 ± 23 | – | 42.7 ± 25 | – | – | – | 27 ± 30 | 10.7 ± 19 | 49.7 ± 26 |
| CC(=O)O [acetic acid] | – | 42 ± 32 | – | 21.2 ± 25 | – | 47.8 ± 24 | – | – | – | 35.5 ± 32 | 11.8 ± 16 | 46.1 ± 18 |
| CC1=C(O)C(=O)OC1C (configuration not stated) [4,5-Dimethyl-3-hydroxy-2,5-dihydrofuran-2-one] | – | 64.4 ± 25 | – | 72.6 ± 21 | – | 59.5 ± 29 | – | – | – | 42.7 ± 32 | 41.8 ± 30 | 46.1 ± 26 |
| CC(=O)c1cc(C)oc1C [3-Acetyl-2,5-dimethylfuran] | – | 44.9 ± 27 | – | 65.6 ± 24 | – | 31.6 ± 22 | – | – | – | 40.2 ± 32 | 15.4 ± 22 | 48.9 ± 22 |
| C=CCOC(=O)c1ccco1 [Allyl 2-furoate] | 40.9 ± 29 | 39.9 ± 27 | 60.6 ± 29 | 27 ± 28 | 31.9 ± 23 | 41.8 ± 21 | – | – | – | – | – | – |
| CCCCC(=O)O [valeric acid] | – | 31.6 ± 29 | – | 47.2 ± 29 | – | 24.7 ± 22 | – | – | – | 45.2 ± 34 | 34.9 ± 32 | 37.5 ± 23 |
| CCCCN [Butylamine] | – | 36 ± 29 | – | 16.3 ± 22 | – | 50.8 ± 27 | – | – | – | 32.7 ± 27 | 21.8 ± 24 | 44.4 ± 25 |
| COc1cncc(C(C)C)n1 [2-Methoxy-3(5 or 6)-isopropylpyrazine] | 50 ± 32 | 45.3 ± 28 | 80.8 ± 23 | 58 ± 30 | 27.3 ± 26 | 33.3 ± 22 | – | – | – | – | – | – |
